Measured values: US11766468B2, “Method of treating prostate cancer with GnRH antagonist” (priority 2012, dated 2023)
Marks after values point to notes of the source that are not given here. Square brackets hold non-standard residues; d marks the D form. Peptide text beside a SMILES is read from it. * marks the point of attachment. dPhe(4-NHCONH2) = NC(=O)Nc1ccc(C[C@@H](N)C(=O)O)cc1; Dihydroorotyl(S) = O=C1C[C@@H](C(=O)*)NC(=O)N1; dPhe(4-Cl) = N[C@H](Cc1ccc(Cl)cc1)C(=O)O; Phe(4-NH2) = Nc1ccc(C[C@H](N)C(=O)O)cc1; d2Nal = N[C@H](Cc1ccc2ccccc2c1)C(=O)O; Lys(iPr) = CC(C)NCCCC[C@H](N)C(=O)O; d3Pal = N[C@H](Cc1cccnc1)C(=O)O

Assay: CS21 safety: treatment-emergent adverse events (MedDRA SOC/PT), crude incidence, also by subgroup
Format: in vivo
Conditions: pooled degarelix
Experimental: The safety variables for this study were assessed on the following: the frequency and severity of adverse events (AEs); the presence of clinically significant changes in laboratory parameters (clinical chemistry, hematology and urinalysis); changes in electrocardiograms (ECGs) and vital signs; changes detected by physical examination; and body weight.
An AE was therefore any unfavorable or unintended sign (including an abnormal laboratory finding), symptom or disease temporally associated with the use of the product, whether or not related to the IMP.
An adverse drug reaction (ADR) was defined as an AE evaluated by the investigator as being probably or possibly related to treatment with the IMP.
AEs were graded according to the National Cancer Institute (NCI) Common Terminology Criteria for Adverse Events (CTCAE). In accordance with the CTCAE criteria, AEs were rated on a five-point scale corresponding to mild, moderate, severe, life-threatening or disabling and death. For those AEs not described in the CTCAE, a separate five-point rating scale was used for rating of the intensity of AEs as follows below:
Safety parameters were evaluated for all patients included in the ITT analysis set, comprising all 610 randomized patients who received at least one dose of study medication. All safety tables include four columns: the three treatment groups described separately, and the pooled degarelix group.
Adverse events were regarded as ‘treatment-emergent’ if they occurred in the time interval from initial dosing to end-of-study. Adverse events were considered ‘pre-treatment’ if they occurred between screening and the initial injections of IMP. As described above, all AEs were classified according to MedDRA (version 10.0) system organ class (SOC), sorted alphabetically, and by preferred term (PT), in decreasing frequency of occurrence. Treatment-emergent AEs were expressed in terms of intensity (using NCI CTCAE) and relationship to study drug.
Using the results from the summary of clinical efficacy (SCE) and summary of clinical safety (SCS) findings, different patient subgroups were analyzed. Subgroup distinguishers included race (white, black, and other), age (<65 years, […], and >75 years), weight (<70 kg, ≥70−<90 kg, and ≥90 kg), body mass index (BMI) (≤20, >20 to 30, and >30 kg/m^2)), region (North-America, Western Europe, Central and Eastern Europe and Other), and stage of prostate cancer (e.g., localized, locally advanced, and metastatic).

With `CC(=O)N[C@H](Cc1ccc2ccccc2c1)C(=O)N[C@H](Cc1ccc(Cl)cc1)C(=O)N[C@H](Cc1cccnc1)C(=O)N[C@@H](CO)C(=O)N[C@@H](Cc1ccc(NC(=O)[C@@H]2CC(=O)NC(=O)N2)cc1)C(=O)N[C@H](Cc1ccc(NC(N)=O)cc1)C(=O)N[C@@H](CC(C)C)C(=O)N[C@@H](CCCCNC(C)C)C(=O)N1CCC[C@H]1C(=O)N[C@H](C)C(N)=O` [Degarelix, D-Alaninamide, N-acetyl-3-(2-naphthalenyl)-D-alanyl-4-chloro-D-phenylalanyl-3-(3-pyridinyl)-D-alanyl-L-seryl-4-[[[(4S)-hexahydro-2,6-dioxo-4-pyrimidinyl]carbonyl]amino]-L phenylalanyl-4-[(aminocarbonyl)amino]-D-phenylalanyl-L leucyl-N6-(1-methylethyl)-L-lysyl-L-prolyl] (Ac-[d2Nal][dPhe(4-Cl)][d3Pal]S[Phe(4-NH2)](Dihydroorotyl(S))[dPhe(4-NHCONH2)]L[Lys(iPr)]P[dA]-NH2) the “Gastrointestinal disorders, % of patients” value (Age <65) was “(9%)*”, the “Infections and infestations, % of patients” value (Age <65) was “(16%)” and the “Musculoskeletal and connective tissue disorders, % of patients” value (Age <65) was “(9%)**”. The “Renal and urinary disorders, % of patients” value (Age <65) was “(10%)*”, the “Subjects with adverse events, %” value (Age <65) was “(75%)” and the “Urinary retention, % of patients” value (Age <65) was “(1%)*”. The “Depression, % of patients” value (PCA = Localised) was “(<1%)*”, the “Erectile dysfunction, % of patients” value (PCA = Localised) was “(<1%)*” and the “Gynaecomastia, % of patients” value (PCA = Localised) was “(<1%)”. The “Infections and infestations, % of patients” value (PCA = Localised) was “(17%)”, the “Musculoskeletal and connective tissue disorders, % of patients” value (PCA = Localised) was “(16%)” and the “Neoplasms benign, malignant and unspecified, % of patients” value (PCA = Localised) was “(3%)”. The “Oedema peripheral, % of patients” value (PCA = Localised) was “(2%)*”, the “Psychiatric disorders, % of patients” value (PCA = Localised) was “(9%)” and the “Reproductive system and breast disorders, % of patients” value (PCA = Localised) was “(4%)”. The “Subjects with adverse events, %” value (PCA = Localised) was “(81%)”, the “Upper respiratory tract infection, % of patients” value (PCA = Localised) was “(3%)” and the “Urinary tract infection, % of patients” value (PCA = Localised) was “(2%)*”. The “Arthralgia, % of patients” value (PCA = Locally advanced) was “(2%)**”, the “Back pain, % of patients” value (PCA = Locally advanced) was “( 5%)” and the “Cardiac disorders, % of patients” value (PCA = Locally advanced) was “(3%)”. For the same compound, the “Diarrhoea, % of patients” value (PCA = Locally advanced) was “(<1%)*”, the “Dyspnoea, N patients” value (PCA = Locally advanced) was 0 and the “Fall, % of patients” value (PCA = Locally advanced) was “(<1%)”. The “Gastrointestinal disorders, % of patients” value (PCA = Locally advanced) was “(13%)”, the “Infections and infestations, % of patients” value (PCA = Locally advanced) was “(13%)” and the “Injury, poisoning and procedural complications, % of patients” value (PCA = Locally advanced) was “(2%)**”. The “Muscle strain, % of patients” value (PCA = Locally advanced) was “(<1%)”, the “Musculoskeletal and connective tissue disorders, % of patients” value (PCA = Locally advanced) was “(10%)” and the “Respiratory, thoracic and mediastinal disorders, % of patients” value (PCA = Locally advanced) was “( 7%)”. For the same compound, the “Subjects with adverse events, %” value (PCA = Locally advanced) was “(74%)”, the “Urinary tract infection, % of patients” value (PCA = Locally advanced) was “(<1%)**” and the “Arthralgia, % of patients” value (PCA = Metastatic) was “( 5%)”. The “Back pain, % of patients” value (PCA = Metastatic) was “( 5%)”, the “Gastrointestinal disorders, % of patients” value (PCA = Metastatic) was “(15%)” and the “Musculoskeletal and connective tissue disorders, % of patients” value (PCA = Metastatic) was “(21%)”. The “Pain in extremity, % of patients” value (PCA = Metastatic) was “( 1%)”, the “Subjects with adverse events, %” value (PCA = Metastatic) was “(81%)” and the “Erectile dysfunction, % of patients” value (Race = Other) was “(2%)*”. The “Infections and infestations, % of patients” value (Race = Other) was “(33%)”, the “Reproductive system and breast disorders, % of patients” value (Race = Other) was “(10%)” and the “Subjects with adverse events, %” value (Race = Other) was “(95%)”. The “Urinary tract infection, % of patients” value (Race = Other) was “(5%)*”, the “Cardiac disorders, % of patients” value (Race = White) was “(10%)” and the “Chest pain, % of patients” value (Race = White) was “(<1%)*”. For the same compound, the “Cystitis noninfective, N patients” value (Race = White) was 0, the “Deep vein thrombosis, N patients” value (Race = White) was 0 and the “Infections and infestations, % of patients” value (Race = White) was “(19%)”. The “Investigations, % of patients” value (Race = White) was “(26%)”, the “Musculoskeletal and connective tissue disorders, % of patients” value (Race = White) was “(15%)**” and the “Musculoskeletal stiffness, N patients” value (Race = White) was 0. The “Myocardial ischaemia, % of patients” value (Race = White) was “(<1%)*”, the “Oedema peripheral, % of patients” value (Race = White) was “(1%)*” and the “Orthostatic hypotension, N patients” value (Race = White) was 0. For the same compound, the “Renal and urinary disorders, % of patients” value (Race = White) was “(14%)”, the “Subjects with adverse events, %” value (Race = White) was “(79%)” and the “Upper respiratory tract infection, % of patients” value (Race = White) was “(<1%)*”. For the same compound, the “Urinary retention, % of patients” value (Race = White) was “( 1%)*”, the “Vascular disorders, % of patients” value (Race = White) was “(31%)” and the “Cardiac disorders, % of patients” value (Weight 70-<90 kg) was “( 5%)*”. For the same compound, the “Erectile dysfunction, % of patients” value (Weight 70-<90 kg) was “(<1%)*”, the “Nervous system disorders, % of patients” value (Weight 70-<90 kg) was “(12%)” and the “Reproductive system and breast disorders, % of patients” value (Weight 70-<90 kg) was “( 5%)”. For the same compound, the “Subjects with adverse events, %” value (Weight 70-<90 kg) was “(81%)”, the “Arthralgia, % of patients” value (Weight <70 kg) was “( 3%)**” and the “Musculoskeletal and connective tissue disorders, % of patients” value (Weight <70 kg) was “(17%)*”. For the same compound, the “Pelvic pain, N patients” value (Weight <70 kg) was 0, the “Reproductive system and breast disorders, % of patients” value (Weight <70 kg) was “(4%)*” and the “Subjects with adverse events, %” value (Weight <70 kg) was “(78%)”. For the same compound, the “Arthralgia, % of patients” value (Weight >=90 kg) was “( 5%)”, the “Back pain, % of patients” value (Weight >=90 kg) was “( 5%)*” and the “Infections and infestations, % of patients” value (Weight >=90 kg) was “(26%)”. For the same compound, the “Musculoskeletal and connective tissue disorders, % of patients” value (Weight >=90 kg) was “(15%)*”, the “Neoplasms benign, malignant and unspecified, % of patients” value (Weight >=90 kg) was “(1%)*” and the “Subjects with adverse events, %” value (Weight >=90 kg) was “(84%)”. The “Urinary tract infection, % of patients” value (Weight >=90 kg) was “( 3%)*”.
